From US7998989B2, “2-Imino-1,3-thiazoline-based compounds and T-type calcium channel inhibitors containing the same” (Korea Institute of Science and Technology, priority 2007, dated 2011)

How the values were obtained:
[1] = biological target: T1, α1G T-type calcium channel (Homo sapiens, UniProt O43497); experiment: Electrophysiological whole cell patch clamp measurement of T-type calcium channel current in HEK293 cells; assay type: cell-based; conditions: HEK293 cells expressing α1G; for HEK293cell (% Inhibition) 10 μM: inhibition of peak current; for IC50: read-out: IC50 (a1G)
T1 construct: host or cells: HEK293
Experimental: In the present invention, in order to examine an efficient inhibitor against the T-type calcium channel, a primary assay for T-type calcium channel inhibiting activity was conducted by a high-efficient assay using FDSS6000, wherein mammal HEK293 cell lines (originated from human kidney carcinoma cells) that specifically express α1G of the T-type calcium channel was used for primary assay. Through the primary assay, compounds that show meaningful inhibition effects were selected. The selected compounds were used in a second assay for T-type calcium channel inhibiting activity using an electrophysiological whole cell patch clamp method, wherein mammal HEK293 cell lines (originated from human kidney carcinoma cells) that specifically express α1G of the T-type calcium channel was used for the second assay. Mibefradil, which had been developed as a T-type calcium channel inhibitor, was used as a reference.
10% Fetal bovine serum (FBS) and 1% penicillin/streptomycin (v/v) were added to Dulbecco's modified Eagle's medium (DMEM), to be used as a media solution. The cells were cultured in an incubator under a wet condition of 95% air/5% CO2 and a temperature of 36.5° C. The media solution was refreshed every 3 or 4 days, and the cells were sub-cultured every week. Only the cells that expressed α1G T-type calcium channel were cultured using a G-418 (0.5 mg/ml) solution. The recording of the cells used in the T-type calcium channel activity analysis was conducted at 2-7 days after the cells were culturing on a cover slip coated with poly-L-lysine (0.5 mg/ml) when conducting every sub-culture. For analysis at a single cell level, the T-type calcium channel current was measured by an electrophysiological whole cell patch clamp method using EPC-9 amplifier (HEKA, German).
As solutions for analyzing T-type calcium channel activity, a solution including NaCl 140 mM, CaCl2 2 mM, and HEPES10 mM (pH 7.4, Sigma; 4-(2-hydroxyethyl)piperazine-1-ethanesulfonic acid) was used as an extracellular solution, and a solution including KCl 130 mM, HEPES 10 mM (Sigma), EGTA 11 mM (ethylene glycol-bis(2-aminoethylether)-N,N,N′,N′-tetraacetic acid, Sigma), and MgATP 5 mM (pH 7.4, Sigma) was used as an intracellular solution. The protocol for T-type calcium channel activity that is activated at low voltage is as follows. A micro-glass electrode with resistance of 3-4 MΩ wherein the above-prepared intracellular solution was filled was pricked into a single cell, to make a whole-cell recording mode. Thereafter, the cell membrane potential was fixed to −100 mV, and then the inward current due to the T-type calcium channel activity when hypopolarizing to −30 mV (50 ms duration) was measured every 10 seconds.
Each compound to be tested was dissolved in 100% dimethylsulfoxide (DMSO) to make a 10 mM stock solution. The effect of the compound on the T-type calcium channel current compound was initially examined in the stock solution with the 1000-times diluted concentration of 10 μM (containing 0.1% DMSO) and then examined in the solution with the concentration for IC50 measurement (mostly 0.1 to 100 μM), to obtain an IC50 value. More specifically, the cells were treated in each compound together with the extracellular solution for 30 to 60 seconds, and the inhibition level of peak current induced by the compound was calculated as a percentage, to obtain the % inhibition value as shown in Table 4.

[2] = biological target: T1, α1G T-type calcium channel; experiment: Assay for % inhibiting activity against T-type calcium channel using FDSS6000 (fluo-3 calcium imaging, KCl activation); assay type: cell-based; conditions: 10 μM; for FDSS (% inhibition)/10uM: HEK293 cells stably expressing α1G T-type calcium channel and Kir2.1, compounds of the examples
Procedure, shortened: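 Percent inhibition derived from […] area against untreated control (100%), after 75 s compound pre-exposure and 75 mM KCl activation. Cells: HEK293 with stable α1G plus Kir2.1, fluo-3/AM-labelled (5 μM), assayed in pH 7.4 HEPES containing 10 mM CaCl2.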

T1 sequence (O43497 whole entry): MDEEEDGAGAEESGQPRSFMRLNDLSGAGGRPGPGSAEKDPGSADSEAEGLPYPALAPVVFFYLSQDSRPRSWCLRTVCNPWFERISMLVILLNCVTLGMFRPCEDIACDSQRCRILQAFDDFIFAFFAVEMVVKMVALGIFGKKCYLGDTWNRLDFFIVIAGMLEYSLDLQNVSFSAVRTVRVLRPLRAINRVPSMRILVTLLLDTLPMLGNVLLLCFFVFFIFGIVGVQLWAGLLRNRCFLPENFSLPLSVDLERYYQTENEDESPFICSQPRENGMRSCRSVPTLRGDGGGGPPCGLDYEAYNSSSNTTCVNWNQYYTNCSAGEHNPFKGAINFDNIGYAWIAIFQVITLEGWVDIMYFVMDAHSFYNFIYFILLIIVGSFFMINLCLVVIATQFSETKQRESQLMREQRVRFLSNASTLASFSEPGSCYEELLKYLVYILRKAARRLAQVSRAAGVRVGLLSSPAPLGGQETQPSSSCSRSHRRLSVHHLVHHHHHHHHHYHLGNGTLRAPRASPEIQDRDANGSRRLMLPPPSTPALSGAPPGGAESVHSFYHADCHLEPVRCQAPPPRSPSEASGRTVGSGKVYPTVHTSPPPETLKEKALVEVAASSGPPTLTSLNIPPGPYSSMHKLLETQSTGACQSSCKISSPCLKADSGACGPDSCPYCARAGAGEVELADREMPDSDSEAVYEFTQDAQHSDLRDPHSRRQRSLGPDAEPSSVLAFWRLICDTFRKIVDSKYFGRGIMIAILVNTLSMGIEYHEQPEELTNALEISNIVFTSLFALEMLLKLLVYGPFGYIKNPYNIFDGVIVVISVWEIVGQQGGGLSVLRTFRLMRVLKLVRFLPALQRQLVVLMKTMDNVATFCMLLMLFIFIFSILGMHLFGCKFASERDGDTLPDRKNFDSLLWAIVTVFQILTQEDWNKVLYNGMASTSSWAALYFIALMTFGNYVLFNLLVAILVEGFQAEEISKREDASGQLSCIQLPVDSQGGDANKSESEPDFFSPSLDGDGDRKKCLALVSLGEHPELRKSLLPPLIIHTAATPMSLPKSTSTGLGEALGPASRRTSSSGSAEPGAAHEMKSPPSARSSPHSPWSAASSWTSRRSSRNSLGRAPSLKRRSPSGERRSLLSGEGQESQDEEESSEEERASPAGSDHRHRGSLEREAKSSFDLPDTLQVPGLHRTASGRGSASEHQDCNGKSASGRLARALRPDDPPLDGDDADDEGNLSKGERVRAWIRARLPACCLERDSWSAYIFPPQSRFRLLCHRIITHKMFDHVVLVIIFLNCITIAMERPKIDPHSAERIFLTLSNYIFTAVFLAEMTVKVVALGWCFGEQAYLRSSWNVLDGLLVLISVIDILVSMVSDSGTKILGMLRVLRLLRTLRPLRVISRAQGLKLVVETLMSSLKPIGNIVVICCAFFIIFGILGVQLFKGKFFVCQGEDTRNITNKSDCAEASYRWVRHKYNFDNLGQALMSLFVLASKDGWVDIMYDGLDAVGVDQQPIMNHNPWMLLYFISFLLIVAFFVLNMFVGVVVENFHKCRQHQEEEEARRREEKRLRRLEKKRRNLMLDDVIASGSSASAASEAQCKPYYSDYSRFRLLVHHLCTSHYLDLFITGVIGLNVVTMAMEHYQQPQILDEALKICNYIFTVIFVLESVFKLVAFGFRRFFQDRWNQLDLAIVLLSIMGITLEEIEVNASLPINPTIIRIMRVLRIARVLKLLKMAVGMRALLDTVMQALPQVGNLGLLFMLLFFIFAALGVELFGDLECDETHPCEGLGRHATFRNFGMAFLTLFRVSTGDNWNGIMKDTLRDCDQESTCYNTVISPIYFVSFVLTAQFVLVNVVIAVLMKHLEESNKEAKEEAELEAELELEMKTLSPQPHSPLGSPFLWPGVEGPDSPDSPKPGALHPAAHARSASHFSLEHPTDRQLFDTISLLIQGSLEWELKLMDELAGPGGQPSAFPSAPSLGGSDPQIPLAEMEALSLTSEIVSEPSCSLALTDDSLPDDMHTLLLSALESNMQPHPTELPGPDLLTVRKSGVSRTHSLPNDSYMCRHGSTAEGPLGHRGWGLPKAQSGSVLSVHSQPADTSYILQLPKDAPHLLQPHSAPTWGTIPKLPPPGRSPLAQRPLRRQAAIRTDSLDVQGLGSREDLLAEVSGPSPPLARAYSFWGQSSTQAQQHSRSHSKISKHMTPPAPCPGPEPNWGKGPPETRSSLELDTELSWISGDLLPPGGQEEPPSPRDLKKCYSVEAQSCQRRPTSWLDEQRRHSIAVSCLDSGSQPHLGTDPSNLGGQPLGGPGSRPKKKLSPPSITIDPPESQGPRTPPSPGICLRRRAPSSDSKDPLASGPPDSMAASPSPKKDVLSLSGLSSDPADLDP

## CN1C(=NC2CCCCCC2)SCC1CC(=O)Nc1cc(Cl)cc(Cl)c1.Cl (centres unmarked) [KHG24125, (2-cycloheptylimino-3-methyl-1,3-thiazolidine-4-yl)-N-(3,5- ? chlorophenyl)-acetamide hydrochloride]
[1]
  HEK293cell (% Inhibition) 10 μM: 95.6 ± 1.2%
  IC50: 80 ± 10 nM
[2]
  FDSS (% inhibition)/10uM: 71.79%

## CN1C(=Nc2cccc(F)c2)SCC1CC(=O)Nc1ccc(Cl)cc1F.Cl (centres unmarked) [KHG32076, [2-(3-fluorophenylimino)-3-methyl-1,3-thiazolidine-4-yl]-N-(4-chloro-2-fluorophenyl)-acetamide hydrochloride]
[2]; FDSS (% inhibition), comparative compounds where R6 is a phenyl group, read-out: FDSS
  inhibition at 10 µM: 20.5%
other
  melting point: 229 to 231 °C

## (2-cycloheptylimino-3-methyl-1,3-thiazolidine-4-yl)-N-(2,4-difluorophenyl)-acetamide hydrochloride [KHG24127]
[1]
  HEK293cell (% Inhibition) 10 μM: 80.8 ± 0.6%
  IC50: 2660 ± 330 nM
[2]
  FDSS (% inhibition)/10uM: 49.69%

## (2-cycloheptylimino-3-methyl-1,3-thiazolidine-4-yl)-N-(2-chloro-4-fluorophenyl)-acetamide hydrochloride [KHG24120]
[1]
  HEK293cell (% Inhibition) 10 μM: 82.7 ± 0.9%
  IC50: 2750 ± 250 nM
[2]
  FDSS (% inhibition)/10uM: 60.08%

## (2-cycloheptylimino-3-methyl-1,3-thiazolidine-4-yl)-N-(2-fluoro-4-methylphenyl)-acetamide hydrochloride [KHG24126]
[1]
  HEK293cell (% Inhibition) 10 μM: 87.7 ± 0.6%
  IC50: 1200 ± 80 nM
[2]
  FDSS (% inhibition)/10uM: 53.79%

## (2-cycloheptylimino-3-methyl-1,3-thiazolidine-4-yl)-N-(2-fluoro-5-nitrophenyl)-acetamide hydrochloride [KHG24129]
[1]
  HEK293cell (% Inhibition) 10 μM: 90.0 ± 0.4%
  IC50: 1570 ± 110 nM
[2]
  FDSS (% inhibition)/10uM: 61.39%

## (2-cycloheptylimino-3-methyl-1,3-thiazolidine-4-yl)-N-(4-bromophenyl)-acetamide hydrochloride [KHG24122]
[1]
  HEK293cell (% Inhibition) 10 μM: 94.6 ± 0.5%
  IC50: 390 ± 30 nM
[2]
  FDSS (% inhibition)/10uM: 71.12%

## (2-cycloheptylimino-3-methyl-1,3-thiazolidine-4-yl)-N-(4-chloro-2-fluorophenyl)-acetamide hydrochloride [KHG24130]
[1]
  HEK293cell (% Inhibition) 10 μM: 90.0 ± 0.9%
  IC50: 810 ± 80 nM
[2]
  FDSS (% inhibition)/10uM: 70.4%

## (2-cycloheptylimino-3-methyl-1,3-thiazolidine-4-yl)-N-(4-chlorobenzyl)-acetamide hydrochloride [KHG24160]
[1]
  HEK293cell (% Inhibition) 10 μM: 92.9 ± 0.7%
  IC50: 1330 ± 30 nM
[2]
  FDSS (% inhibition)/10uM: 61.93%

## (2-cycloheptylimino-3-methyl-1,3-thiazolidine-4-yl)-N-(4-chlorophenyl)-acetamide hydrochloride [KHG24131]
[1]
  HEK293cell (% Inhibition) 10 μM: 86.8 ± 0.3%
  IC50: 520 ± 20 nM
[2]
  FDSS (% inhibition)/10uM: 72.86%

## (2-cycloheptylimino-3-methyl-1,3-thiazolidine-4-yl)-N-(4-cyanomethylphenyl)-acetamide hydrochloride [KHG24121]
[1]
  HEK293cell (% Inhibition) 10 μM: 58.1 ± 4.9%
  IC50: 8530 ± 1720 nM
[2]
  FDSS (% inhibition)/10uM: 41.02%

## (2-cycloheptylimino-3-methyl-1,3-thiazolidine-4-yl)-N-(4-ethylphenyl)-acetamide hydrochloride [KHG24117]
[1]
  HEK293cell (% Inhibition) 10 μM: 93.0 ± 2.5%
  IC50: 570 ± 70 nM
[2]
  FDSS (% inhibition)/10uM: 67.09%

## (2-cycloheptylimino-3-methyl-1,3-thiazolidine-4-yl)-N-(4-fluorobenzyl)-acetamide hydrochloride [KHG24159]
[1]
  HEK293cell (% Inhibition) 10 μM: 76.8 ± 1.4%
  IC50: 3570 ± 290 nM
[2]
  FDSS (% inhibition)/10uM: 48.52%

## (2-cycloheptylimino-3-methyl-1,3-thiazolidine-4-yl)-N-(4-fluorophenyl)-acetamide hydrochloride [KHG24118]
[1]
  HEK293cell (% Inhibition) 10 μM: 80.3 ± 1.1%
  IC50: 1880 ± 220 nM
[2]
  FDSS (% inhibition)/10uM: 66%

## (2-cycloheptylimino-3-methyl-1,3-thiazolidine-4-yl)-N-(4-isopropylphenyl)-acetamide hydrochloride [KHG24133]
[1]
  HEK293cell (% Inhibition) 10 μM: 96.0 ± 1.9%
  IC50: 420 ± 10 nM
[2]
  FDSS (% inhibition)/10uM: 69.18%

## (2-cycloheptylimino-3-methyl-1,3-thiazolidine-4-yl)-N-(4-methoxybenzyl)-acetamide hydrochloride [KHG24161]
[1]
  HEK293cell (% Inhibition) 10 μM: 81.2 ± 1.3%
  IC50: 1670 ± 510 nM
[2]
  FDSS (% inhibition)/10uM: 31.29%

## (2-cycloheptylimino-3-methyl-1,3-thiazolidine-4-yl)-N-(4-methoxyphenyl)-acetamide hydrochloride [KHG24119]
[1]
  HEK293cell (% Inhibition) 10 μM: 72.9 ± 1.0%
  IC50: 4440 ± 280 nM
[2]
  FDSS (% inhibition)/10uM: 52.85%

## (2-cycloheptylimino-3-methyl-1,3-thiazolidine-4-yl)-N-(4-methyl-2-chlorophenyl)-acetamide hydrochloride [KHG24124]
[1]
  HEK293cell (% Inhibition) 10 μM: 87.1 ± 1.2%
  IC50: 1770 ± 100 nM
[2]
  FDSS (% inhibition)/10uM: 59.49%

## (2-cycloheptylimino-3-methyl-1,3-thiazolidine-4-yl)-N-(4-n-butylphenyl)-acetamide hydrochloride [KHG24134]
[1]
  HEK293cell (% Inhibition) 10 μM: 95.1 ± 2.0%
  IC50: 340 ± 30 nM
[2]
  FDSS (% inhibition)/10uM: 75.92%

## (2-cycloheptylimino-3-methyl-1,3-thiazolidine-4-yl)-N-(4-phenoxyphenyl)-acetamide hydrochloride [KHG24123]
[1]
  HEK293cell (% Inhibition) 10 μM: 94.2 ± 2.0%
  IC50: 1090 ± 200 nM
[2]
  FDSS (% inhibition)/10uM: 76.6%

## (2-cycloheptylimino-3-methyl-1,3-thiazolidine-4-yl)-N-(5-chloro-2-fluorophenyl)-acetamide hydrochloride [KHG24128]
[1]
  HEK293cell (% Inhibition) 10 μM: 88.1 ± 1.9%
  IC50: 550 ± 10 nM
[2]
  FDSS (% inhibition)/10uM: 62.56%

## (2-cycloheptylimino-3-methyl-1,3-thiazolidine-4-yl)-N-phenyl-acetamide hydrochloride [KHG24132]
[1]
  HEK293cell (% Inhibition) 10 μM: 76.8 ± 1.0%
  IC50: 5000 ± 1970 nM
[2]
  FDSS (% inhibition)/10uM: 50.94%

## (2-cyclohexylimino-3-methyl-1,3-thiazolidine-4-yl)-N-(2-fluoro-5-nitrophenyl)-acetamide hydrochloride [KHG23360]
[1]
  HEK293cell (% Inhibition) 10 μM: 87.8 ± 2.2%
  IC50: 780 ± 80 nM
[2]
  FDSS (% inhibition)/10uM: 66.64%

## (2-cyclohexylimino-3-methyl-1,3-thiazolidine-4-yl)-N-(2-trifluoromethylphenyl)-acetamide hydrochloride [KHG24083]
[1]
  HEK293cell (% Inhibition) 10 μM: 76.5 ± 2.3%
  IC50: 3630 ± 540 nM
[2]
  FDSS (% inhibition)/10uM: 47.92%

## (2-cyclohexylimino-3-methyl-1,3-thiazolidine-4-yl)-N-(3,5-dichlorophenyl)-acetamide hydrochloride [KHG23356]
[1]
  HEK293cell (% Inhibition) 10 μM: 97.0 ± 0.7%
  IC50: 230 ± 10 nM
[2]
  FDSS (% inhibition)/10uM: 60.46%

## (2-cyclohexylimino-3-methyl-1,3-thiazolidine-4-yl)-N-(3,5-ditrifluoromethylphenyl)-acetamide hydrochloride [KHG24075]
[1]
  HEK293cell (% Inhibition) 10 μM: 94.1 ± 1.5%
  IC50: 320 ± 20 nM
[2]
  FDSS (% inhibition)/10uM: 73.72%

## (2-cyclohexylimino-3-methyl-1,3-thiazolidine-4-yl)-N-(3-chloro-4-methylphenyl)-acetamide hydrochloride [KHG24072]
[1]
  HEK293cell (% Inhibition) 10 μM: 91.2 ± 1.6%
  IC50: 990 ± 30 nM
[2]
  FDSS (% inhibition)/10uM: 63.5%
